Experimental data published in patent publication US8168645B2, “Arylsulfonamide compounds” (Genentech, Inc., priority 2006, dated 2012).

Legend:
[1] = target: GST tagged BCl-xL ΔC25 protein (Homo sapiens, UniProt Q07817); test: Alphascreen competition binding assay, GST tagged Bcl-xL vs biotinylated Bim BH3-26 peptide; details: competition with Bim BH3-26 peptide; unit inferred
Text: (§1) Measurement of competition of compounds of the invention with Bim26-mer for a Bcl-2 homologue binding site.
(§2) Alphascreen (Amplified Luminescent Proximity Homogenous Assay) is a bead based technology which measures the interaction between molecules. The assay consists of two hydrogel coated beads which, when bought into close proximity by a binding interaction, allow the transfer of singlet oxygen from a donor bead to an acceptor bead.
(§3) Upon binding and excitation with laser light at 680 nm, a photosensitizer in the donor bead converts ambient oxygen to a more excited singlet state. This singlet oxygen then diffuses across to react with a chemiluminescer in the acceptor bead. Fluorophores within the same bead are activated resulting in the emission of light at 580-620 nm.
(§4) Screening of the compounds of the invention was performed using the Alphascreen GST (glutathione s-transferase) detection kit system. Test compounds were titrated into the assay which consisted of GST tagged Bclw ΔC29 protein (0.05 nM Final concentration) and Biotinylated Bim BH3-26 peptide, Biotin-[…] (3.0 nM Final concentration). For the GST tagged BCl-xL assay, GST tagged BCl-xL ΔC25 protein (0.6 nM Final concentration) and Biotinylated Bim BH3-26 peptide, Biotin-[…] (5.0 nM final concentration) were used. To this reaction mix anti-GST coated acceptor beads and Streptavidin coated donor beads, both at 15 μg/ml Final concentration, were added and the assay mixture incubated for 4 hours at room temperature before reading. Similarly when the Bcl-2 protein was Mcl-1, GST tagged Mcl-1 protein (0.4 nM Final concentration) and Biotinylated Bak BH3 peptide, Biotin-[…]-OH (4.0 nM Final concentration) were used.
(§5) • 1) prepare a 384 well with 4.75 μL of buffer and 0.25 μL of compounds (20 mM in DMSO) per well. • 2) Mix the binding partners, in one tube add Bcl-w, BCl-xL or Mcl-1 and the acceptor beads, in the second tube add Biotinylated BH3 peptide and the donor beads. • 3) Pre-incubate the two pairs of binding partners for 30 minutes. • 4) Add 1 μL of acceptor beads:Bcl-w, BCl-xL or Mcl-1 protein mix to each well. • 5) Seal the plate and incubate at room temperature for 30 minutes. • 6) Add 10 μL of donor bead:BH3 peptide mix to each well. • 7) Seal the plate, cover with foil and incubate for 4 hours.
(§6) Assay buffer contained 50 mM Hepes pH 7.4, 10 mM DTT, 100 mM NaCl, 0.05% Tween and 0.1 mg/ml casein. Bead dilution buffer contained 50 mM Tris, pH 7.5, 0.01% Tween and 0.1 mg/ml casein. The final DMSO concentration in the assay was 0.5%. Assays were performed in 384 well white Optiplates and analyzed on the PerkinElmer Fusion alpha plate reader (Ex680, Em520-620 nM).
(§7) The GST Alphascreen detection kit and Optiplates were purchased from PerkinElmer.

GST tagged Mcl-1 protein = GST tagged Mcl-1 protein (Homo sapiens, UniProt Q07820); test: Alphascreen competition binding assay, GST tagged Mcl-1 vs biotinylated Bak BH3 peptide; details: competition with Bak BH3 peptide; unit inferred
Chain of GST tagged Mcl-1 protein (Q07820 whole entry): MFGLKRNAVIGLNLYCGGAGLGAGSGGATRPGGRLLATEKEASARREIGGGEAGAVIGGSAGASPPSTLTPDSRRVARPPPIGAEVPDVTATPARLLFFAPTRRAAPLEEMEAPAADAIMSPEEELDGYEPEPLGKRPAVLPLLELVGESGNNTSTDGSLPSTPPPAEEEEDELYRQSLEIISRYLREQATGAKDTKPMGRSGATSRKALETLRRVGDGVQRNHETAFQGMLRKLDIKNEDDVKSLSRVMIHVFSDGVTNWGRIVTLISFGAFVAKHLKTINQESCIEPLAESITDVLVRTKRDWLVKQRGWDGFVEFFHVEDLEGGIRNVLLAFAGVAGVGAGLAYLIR
Text: as §1, §2, §3, §4, §5, §6, §7

SCLC cell line NCI-H146 = test: CellTitre-Glow luminescent cytotoxicity assay, NCI-H146; type: cell-based; details: Homo sapiens; NCI-H146 cells, 48 hr incubation
Protocol: (§8) • 1. SCLC cell lines NCI-H889, NCI-H1963, and NCI-H146 were purchased from American Type Culture Collection. Cells were maintained in RPMI 1640 (Invitrogen Corp., Grand Island, N.Y.) supplemented with 10% fetal bovine serum (FBS, Invitrogen), 1% sodium pyruvate, 25 mM HEPES, 4.5 g/L glucose and 1% penicillin/streptomycin (Sigma) in a humidified chamber at 37° C. containing 5% CO2. • 2. cells were grown as suspension aggregates in a T162 flask with 25 ml medium and kept at concentration of 1 million/mL. Test Compound Stocks: • 1. test compounds were prepared as 10 mM stocks in DMSO and stored at −20° C. Test Compound Serial Dilutions: • 1. prewarmed medium to 37° C. • 2. thawed compounds to room temperature. • 3. determined what will be the highest concentration to be tested. (i.e. 10 μM). • 4. prepared a 2× stock in culture medium of the first dose (i.e. 2×10 μM=20 μM) in an Eppendorf tube (i.e. 4 μl of 5 mM stock into 1000 μl=20 μM). • 5. inverted tube several times to mix. […] Columns 1-10 comprised the serial test compound treatments, column 11 was the untreated control and column 12 was the ‘no cell’ control for determining the background. • 1. in a 96 well plate was added 50 μl medium/well in columns 2 thru 11 and 100 μl was added to column 12. • 2. in column 1 was added 100 μl of 2× compound. • 3. made serial dilutions by transferring 50 μl to column 2, and so on up to column 10. After adding 50 μl to column 10 and mixing, discarded 50 μl. • 4. stored plates at 37° C. until ready to add cells. Cell Preparation • 1. Cell were washed one time in the culture medium and prepared as a suspension. • a. cell were first spun down to remove the medium and then ˜1 ml 0.25% trypsin was added and gently mixed and incubated for no more than three minutes at room temperature. • b. ˜10 ml of the medium was added and the cells were gently pipetted several times. • c. cells were then counted and spun down to the volume necessary for the total cell number needed, then resuspended in the medium to 200 cells/μl concentration (50,000 cells/well). • 2. […]

SCLC cell line NCI-H889 = test: CellTitre-Glow luminescent cytotoxicity assay, NCI-H889; type: cell-based; details: Homo sapiens; NCI-H889 cells, 48 hr incubation
Protocol: as §8

SCLC cell line NCI-H1963 = test: CellTitre-Glow luminescent cytotoxicity assay, NCI-H1963; type: cell-based; details: Homo sapiens; NCI-H1963 cells, 48 hr incubation
Protocol: as §8

[2] = test system: mouse embryo fibroblasts (MEFs): wild type, Bax/Bak double knockout, Noxa-expressing, Bad-expressing; test: Cell viability assay on mouse embryo fibroblasts (propidium iodide uptake); type: cell-based; details: propidium iodide uptake after 24 hours
Protocol: FIG. 1 graphically depicts the effect of Compound 1 (FIG. 1A) and Etoposide (FIG. 1B), at increasing concentrations, on the % viability of certain mouse embryo fibroblast (MEF) cells as assessed by propidium iodide uptake after 24 hours. Noxa and Bad were introduced by retrovirally infecting the cells with pMIG retroviruses as described by Chen et al., 2005.
The efficacy of the compounds of the present invention can also be determined in cell based killing assays using a variety of cell lines and mouse tumor models. For example, their activity on cell viability can be assessed on a panel of cultured tumorigenic and non-tumorigenic cell lines, as well as primary mouse or human cell populations, e.g. lymphocytes. For these assays, 5,000-20,000 cells are cultured at 37° C. and 10% CO2 in appropriate growth media, eg: 100 μL Dulbecco's Modified Eagle's medium supplemented with 10% foetal calf serum, asparaginase and 2-mercaptoethanol in the case of pre-B Eμ-Myc mouse tumors in 96 well plates. […] Cell viability is determined by the ability of the cells to exclude propidium iodide (10 μg/mL by immunofluorescence analysis of emission wavelengths of 660-675 nm on a flow cytometer (BD FACScan). Alternatively, a high throughput calorimetric assay such as the Cell Titre 96 could be used. Aqueous Non-Radioactive Cell Proliferation Assay (Promega) may be used. Cell death by apoptosis is confirmed by pre-incubation of the cells with 50 μM of a caspase inhibitor such as zVAD-fmk.
Neutralisation of both Bcl-xL and Mcl-1 anti-apoptotic proteins in normal cells is required before a cell undergoes apoptosis via the downstream Bax/Bak pathway [Chen et al., 2005; Willis et al., 2005]. A compound that only targets Bcl-xL should not affect normal cells, but could kill certain cancer cells if they rely more on Bcl-xL and less on Mcl-1 for survival. To mirror this, compound 1 was tested for its effect on survival of wild type (wt) mouse embryo fibroblasts (MEFs), Bax/Bak double knockout (BB DKO) MEFs, MEFs that expressed Noxa, and MEFs that expressed Bad. Noxa specifically neutralizes Mcl-1.

Chain of GST tagged BCl-xL ΔC25 protein (Q07817 1-208 limits assumed): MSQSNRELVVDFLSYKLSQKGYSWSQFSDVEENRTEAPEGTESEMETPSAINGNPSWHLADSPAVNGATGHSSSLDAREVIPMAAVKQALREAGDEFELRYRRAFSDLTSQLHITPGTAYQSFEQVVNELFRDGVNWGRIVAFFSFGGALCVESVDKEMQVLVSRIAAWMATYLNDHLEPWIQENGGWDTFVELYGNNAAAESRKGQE

| SMILES | IC50 [1] [µM] | IC50 (GST tagged Mcl-1 protein) [µM] | EC50 (SCLC cell line NCI-H146) [µM] | EC50 (SCLC cell line NCI-H889) [µM] | EC50 (SCLC cell line NCI-H1963) [µM] | Selectivity of killing of Noxa-expressing MEFs versus MEFs where both Bcl-xL and Mcl-1 are protective (% viability) ([2]; FIG. 1A/1B) | Effect on Bax/Bak double knockout (BB DKO) MEFs ([2]; FIG. 1B) |
| --- | --- | --- | --- | --- | --- | --- | --- |
| CN(C)CC[C@H](CSc1ccccc1)Nc1ccc(S(=O)(=O)Nc2ncnc3cc(N4CCN(Cc5ccccc5-c5ccc(Cl)cc5)CC4)ccc23)cc1S(=O)(=O)C(F)(F)F [Compound 2, N-{7-[4-(4′-Chloro-biphenyl-2-ylmethyl)-piperazin-1-yl]-quinazolin-4-yl}-4-((R)-3-dimethylamino-1-phenylsulfanylmethyl-propylamino)-3-trifluoromethanesulfonyl-benzenesulfonamide] | 0.006 | 50 |  |  |  |  |  |
| O=[N+]([O-])c1cc(S(=O)(=O)Nc2ncnc3cc(N4CCN(Cc5ccccc5-c5ccc(Cl)cc5)CC4)ccc23)ccc1N[C@H](CCN1CCOCC1)CSc1ccccc1 [Compound 3, N-{7-[4-(4′-Chloro-biphenyl-2-ylmethyl)-piperazin-1-yl]-quinazolin-4-yl}-4-((R)-3-morpholin-4-yl-1-phenylsulfanylmethyl-propylamino)-3-nitro-benzenesulfonamide] | 0.034 | 6 | 3.7 | 1.3 | 1.4 |  |  |
| O=S(=O)(Nc1ncnc2cc(N3CCN(Cc4ccccc4-c4ccc(Cl)cc4)CC3)ccc12)c1ccc(N[C@H](CCN2CCOCC2)CSc2ccccc2)c(S(=O)(=O)C(F)(F)F)c1 [Compound 4, N-{7-[4-(4′-Chloro-biphenyl-2-ylmethyl)-piperazin-1-yl]-quinazolin-4-yl}-4-((R)-3-morpholin-4-yl-1-phenylsulfanylmethyl-propylamino)-3-trifluoromethanesulfonyl-benzenesulfonamide] | 0.016 |  | 0.63 | 0.82 | 0.4 |  |  |
| CN(C)CC[C@H](CSc1ccccc1)Nc1ccc(S(=O)(=O)Nc2ncnc3cc(N4CCN(CC5=C(c6ccc(Cl)cc6)CCC(C)(C)C5)CC4)ccc23)cc1[N+](=O)[O-] [Compound 5, N-(7-{4-[2-(4-Chloro-phenyl)-5,5-dimethyl-cyclohex-1-enylmethyl]-piperazin-1-yl}-quinazolin-4-yl)-4-((R)-3-dimethylamino-1-phenylsulfanylmethyl-propylamino)-3-nitro-benzenesulfonamide] | 0.003 | 7 |  |  |  |  |  |
| CN(C)CC[C@H](CSc1ccccc1)Nc1ccc(S(=O)(=O)Nc2ncnc3cc(N4CCN(CC5=C(c6ccc(Cl)cc6)CCC(C)(C)C5)CC4)ccc23)cc1S(=O)(=O)C(F)(F)F [Compound 6, N-(7-{4-[2-(4-Chloro-phenyl)-5,5-dimethyl-cyclohex-1-enylmethyl]-piperazin-1-yl}-quinazolin-4-yl)-4-((R)-3-dimethylamino-1-phenylsulfanylmethyl-propylamino)-3-trifluoromethanesulfonyl-benzenesulfonamide] | 0.003 | 20 |  |  |  |  |  |
| CC1(C)CCC(c2ccc(Cl)cc2)=C(CN2CCN(c3ccc4c(NS(=O)(=O)c5ccc(N[C@H](CCN6CCOCC6)CSc6ccccc6)c([N+](=O)[O-])c5)ncnc4c3)CC2)C1 [Compound 7, N-(7-{4-[2-(4-Chloro-phenyl)-5,5-dimethyl-cyclohex-1-enylmethyl]-piperazin-1-yl}-quinazolin-4-yl)-4-((R)-3-morpholin-4-yl-1-phenylsulfanylmethyl-propylamino)-3-nitro-benzenesulfonamide] | 0.02 | 10 |  |  |  |  |  |
| CC1(C)CCC(c2ccc(Cl)cc2)=C(CN2CCN(c3ccc4c(NS(=O)(=O)c5ccc(N[C@H](CCN6CCOCC6)CSc6ccccc6)c(S(=O)(=O)C(F)(F)F)c5)ncnc4c3)CC2)C1 [Compound 8, N-(7-{4-[2-(4-Chloro-phenyl)-5,5-dimethyl-cyclohex-1-enylmethyl]-piperazin-1-yl}-quinazolin-4-yl)-4-((R)-3-morpholin-4-yl-1-phenylsulfanylmethylpropylamino)-3-trifluoromethanesulfonyl benzenesulfonamide] | 0.029 | 10 |  |  |  |  |  |
| COc1cc([C@@H]2c3cc4c(cc3[C@@H](O[C@@H]3O[C@@H]5CO[C@@H](C)O[C@H]5[C@H](O)[C@H]3O)[C@H]3COC(=O)[C@H]23)OCO4)cc(OC)c1O [etoposide] |  |  |  |  |  | less selectively than compound 1 | resistance of BB DKO MEFs |
